Assay results from ChEMBL document CHEMBL2074530, “Interaction of ivermectin with multidrug resistance proteins (MRP1, 2 and 3)” (Chem Biol Interact, 2006).

Biological target: Multidrug resistance-associated protein 1 (Homo sapiens, UniProt P33527)
Assay: TP_TRANSPORTER: inhibition of BODIPY-ivermectin transport in HL60-MRP1 cells
Assay type: functional, cell-based

Sequence of Multidrug resistance-associated protein 1 (P33527 whole entry): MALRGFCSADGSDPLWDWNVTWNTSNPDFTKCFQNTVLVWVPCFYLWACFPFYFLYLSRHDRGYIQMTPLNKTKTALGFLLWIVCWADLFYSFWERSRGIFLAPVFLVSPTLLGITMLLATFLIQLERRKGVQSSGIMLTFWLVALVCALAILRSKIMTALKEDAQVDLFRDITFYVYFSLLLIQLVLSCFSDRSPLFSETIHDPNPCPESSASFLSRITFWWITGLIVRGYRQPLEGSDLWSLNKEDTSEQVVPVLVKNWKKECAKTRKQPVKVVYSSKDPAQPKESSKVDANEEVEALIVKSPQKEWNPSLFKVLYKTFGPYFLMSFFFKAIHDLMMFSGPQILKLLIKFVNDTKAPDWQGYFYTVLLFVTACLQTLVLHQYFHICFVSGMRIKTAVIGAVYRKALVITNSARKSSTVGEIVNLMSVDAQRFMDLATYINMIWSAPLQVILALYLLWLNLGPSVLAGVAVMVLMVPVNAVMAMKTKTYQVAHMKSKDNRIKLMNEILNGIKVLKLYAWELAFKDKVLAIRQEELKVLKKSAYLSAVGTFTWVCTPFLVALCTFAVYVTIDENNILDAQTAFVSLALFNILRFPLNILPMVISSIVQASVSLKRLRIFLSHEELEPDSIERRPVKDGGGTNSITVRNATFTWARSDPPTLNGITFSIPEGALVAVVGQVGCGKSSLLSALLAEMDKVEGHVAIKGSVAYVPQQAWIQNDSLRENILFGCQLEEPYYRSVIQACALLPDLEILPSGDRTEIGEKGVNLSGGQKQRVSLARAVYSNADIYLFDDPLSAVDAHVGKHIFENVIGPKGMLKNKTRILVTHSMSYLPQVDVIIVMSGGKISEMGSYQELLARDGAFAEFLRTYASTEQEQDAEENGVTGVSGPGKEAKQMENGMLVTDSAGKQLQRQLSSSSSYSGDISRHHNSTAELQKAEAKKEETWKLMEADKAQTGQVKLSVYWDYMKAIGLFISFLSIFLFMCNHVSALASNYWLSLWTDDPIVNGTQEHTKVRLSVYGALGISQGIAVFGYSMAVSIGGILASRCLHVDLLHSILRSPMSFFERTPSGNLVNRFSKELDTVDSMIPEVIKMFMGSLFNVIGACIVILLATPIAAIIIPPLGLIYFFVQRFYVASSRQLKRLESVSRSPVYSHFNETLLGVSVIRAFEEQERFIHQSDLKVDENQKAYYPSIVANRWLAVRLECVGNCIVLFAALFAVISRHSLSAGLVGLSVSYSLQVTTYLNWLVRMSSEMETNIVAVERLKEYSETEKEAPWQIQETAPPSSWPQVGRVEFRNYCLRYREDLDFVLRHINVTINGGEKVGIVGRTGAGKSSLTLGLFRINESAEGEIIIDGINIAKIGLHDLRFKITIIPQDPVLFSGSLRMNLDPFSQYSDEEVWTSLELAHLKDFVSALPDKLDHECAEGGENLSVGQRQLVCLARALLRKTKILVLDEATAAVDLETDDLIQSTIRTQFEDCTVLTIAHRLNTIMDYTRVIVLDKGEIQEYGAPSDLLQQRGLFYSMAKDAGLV

IVERMECTIN
Activity: inhibitor [+]
